The values that follow come from ChEMBL document CHEMBL4261580, “Novel antitumor compound optimized from natural saponin Albiziabioside A induced caspase-dependent apoptosis and ferroptosis as a p53 activator through the mitochondrial pathway” (Eur J Med Chem, 2018).

Assay [1] has as its system HCT-116. Put plainly: Antiproliferative activity against human HCT116 cells after 72 hrs by MTT assay. Type of assay: functional, cell-based. The note with it: HCT-116, 72 h.
A short description of assay [2]: Antiproliferative activity against human CCD-841 cells after 72 hrs by MTT assay. Type of assay: cell-based. The settings on record: CCD-841, 72 h. (Formazan colour is commonly taken as a measure of viable cells.)
The subject of assay [3] is MCF7. Briefly: Antiproliferative activity against human MCF7 cells after 72 hrs by MTT assay. The class given is functional, cell-based. The note with it: MCF7, 72 h.
Assay [4] concerns A549. Put plainly: Antiproliferative activity against human A549 cells after 72 hrs by MTT assay. The class given is functional, cell-based. The settings on record: A549, 72 h.
Assay [5] deals with MGC-803. Briefly: Antiproliferative activity against human MGC803 cells after 72 hrs by MTT assay. The class given is functional, cell-based. The settings on record: MGC-803, 72 h.
The test system of assay [6] is HaCaT. Briefly: Antiproliferative activity against human HaCaT cells after 72 hrs by MTT assay. Type of assay: cell-based.
Assay [7] can be described thus: Antiproliferative activity against human HBMEC cells after 72 hrs by MTT assay. The class given is cell-based.
The test system of assay [8] is HepG2. Put plainly: Antiproliferative activity against human HepG2 cells after 72 hrs by MTT assay. The class given is functional, cell-based. The settings on record: HepG2, 72 h.
Assay [9] has as its system BEAS-2B. Briefly: Antiproliferative activity against human BEAS2B cells after 72 hrs by MTT assay. The class given is functional, cell-based.
In assay [10] the test system is L02. Briefly: Antiproliferative activity against human LO2 cells after 72 hrs by MTT assay. Type of assay: cell-based. The settings on record: L02, 72 h.
In assay [11] the test system is HCT-116. Briefly: Antitumor activity against human HCT116 cells xenografted in BALB/c nude mouse assessed as decrease in tumor weight at 20 mg/kg, iv administered once per day for 14 days and measured every 2 days. Type of assay: functional. A general note: In xenograft studies the graft and the host belong to different species.
The test system of assay [12] is HCT-116. Briefly: Antitumor activity against human HCT116 cells xenografted in BALB/c nude mouse assessed as decrease in tumor size at 20 mg/kg, iv administered once per day for 14 days and measured every 2 days. The class given is functional.

The source made the active and inactive calls. The calls are words filed in the database; no cut-off is given here.

As to `CC(=O)N[C@H]1[C@H](O[C@H]2CC[C@]3(C)[C@H]4CC=C5[C@@H]6CC(C)(C)CC[C@]6(C(=O)OCc6cn(-c7cccc(Br)c7)nn6)CC[C@@]5(C)[C@]4(C)CC[C@H]3C2(C)C)O[C@H](CO[C@@H]2OC[C@H](O)[C@H](O)[C@@H]2O)[C@@H](O)[C@@H]1O`, the IC50 was determined as 9.93 µM in assay [1]; 18.2 µM in assay [2]; 15 µM in assay [3]; 10.2 µM in [4]; 7.7 µM in assay [5]; 39.3 µM in assay [6]. Also, the half-inhibitory concentration (IC50) is 20.4 µM in assay [7], 5.51 µM in [8], 11.3 µM in [9] and 35.4 µM in assay [10].

For the compound `CC(=O)N[C@H]1[C@H](O[C@H]2CC[C@]3(C)[C@H]4CC=C5[C@@H]6CC(C)(C)CC[C@]6(C(=O)OCc6cn(-c7cccc(I)c7)nn6)CC[C@@]5(C)[C@]4(C)CC[C@H]3C2(C)C)O[C@H](CO[C@@H]2OC[C@H](O)[C@H](O)[C@@H]2O)[C@@H](O)[C@@H]1O`, the IC50 in assay [1] turned out to be 12.2 µM; in assay [2], 36.5 µM; in [3], 10.8 µM; in [4], 9.08 µM; in assay [5], 10.1 µM; in assay [6] it was 29.5 µM. Also, the concentration for half-maximal inhibition (IC50) in [7] stood at 18.7 µM; in [8] it was 5.39 µM; in assay [9], 14.6 µM; in assay [10], 27.4 µM.

Take `CC(=O)N[C@H]1[C@H](O[C@H]2CC[C@]3(C)[C@H]4CC=C5[C@@H]6CC(C)(C)CC[C@]6(C(=O)OCc6cn(-c7ccccc7OC(F)(F)F)nn6)CC[C@@]5(C)[C@]4(C)CC[C@H]3C2(C)C)O[C@H](CO[C@@H]2OC[C@H](O)[C@H](O)[C@@H]2O)[C@@H](O)[C@@H]1O`: the concentration for half-maximal inhibition (IC50) in [1] worked out at 37.9 µM; in [3] it was 32 µM; in assay [4], 15 µM; in assay [5], 36.9 µM; in assay [8], 31.6 µM.

For the compound `CC(=O)N[C@H]1[C@H](O[C@H]2CC[C@]3(C)[C@H]4CC=C5[C@@H]6CC(C)(C)CC[C@]6(C(=O)O)CC[C@@]5(C)[C@]4(C)CC[C@H]3C2(C)C)O[C@H](CO[C@@H]2OC[C@H](O)[C@H](O)[C@@H]2O)[C@@H](O)[C@@H]1O`, the IC50 in [1] was 16 µM; in assay [3] it was 21.9 µM; in assay [4], 17.6 µM; in assay [5], 20.8 µM; in [8], 11.4 µM. Besides, the result in assay [11] and in [12] was Active.

Regarding `CC(=O)N[C@H]1[C@H](O[C@H]2CC[C@]3(C)[C@H]4CC=C5[C@@H]6CC(C)(C)CC[C@]6(C(=O)OCc6cn(-c7ccccc7F)nn6)CC[C@@]5(C)[C@]4(C)CC[C@H]3C2(C)C)O[C@H](CO[C@@H]2OC[C@H](O)[C@H](O)[C@@H]2O)[C@@H](O)[C@@H]1O`, the IC50 in assay [1] is 23.5 µM; in [3], 47.6 µM; in assay [4], 24.2 µM; in assay [5] it was 20.7 µM; in assay [8], 18.9 µM.

`COc1ccccc1-n1cc(COC(=O)[C@]23CCC(C)(C)C[C@H]2C2=CC[C@@H]4[C@@]5(C)CC[C@H](O[C@@H]6O[C@H](CO[C@@H]7OC[C@H](O)[C@H](O)[C@@H]7O)[C@@H](O)[C@H](O)[C@H]6NC(C)=O)C(C)(C)[C@@H]5CC[C@@]4(C)[C@]2(C)CC3)nn1`: the IC50 amounted to 55.8 µM in [1]; 53.1 µM in assay [3]; 59.9 µM in assay [4]; 53 µM in assay [5]; 49.7 µM in assay [8].

For orientation: IC50 means the concentration that gives 50% inhibition. High values mean weaker potency, low ones greater potency.
